Like-named read-outs stand apart in the source and are kept apart here.
Key:
[1] = tested on: PDK-4; conditions: CT26 Balb/c cachexia model, 21 days
Source text: The mice were sacrificed, and the skeletal muscle in the quadriceps was extracted during autopsy, and tissue was homogenized, and proteins were extracted through RIPA lysis buffer, followed by Western blot analysis.
(§1) In FIG. 47, each group represents the following.

[2] = tested on: lactate; assay: Lactate in mouse blood, CT26 cachexia model; format: in vivo, Balb/c mice; conditions: CT26 Balb/c cachexia model, 21 days; G4 PO 200 mpk, G5 IV 100 mpk, G6 IV 200 mpk; vs vehicle control G2
Experimental: (§2) The mice were sacrificed, and IL-1β and lactate were analyzed using the blood serum collected at autopsy, and the results are summarized in FIGS. 48A and 48B.
(§3) In FIG. 48, each group represents the following.

[3] = tested on: Calpain 3; assay: Calpain 3 expression in mouse muscle tissue, CT26 cachexia model; format: in vivo, Balb/c mice; conditions: CT26 Balb/c cachexia model, 21 days, G6 IV 200 mpk
Source text: as §1

[4] = tested on: GDF-15; assay: GDF-15 expression (Western blot) in CCM-treated C2C12 myotubes; format: cell-based, mouse; conditions: C2C12 myotubes + CCM, 72 hours; comparison experiment with components alone and in combination
Experimental: (§4) C2C12 cell line was dispensed into a 6-well plate at 4.0×10^5 cells/well and cultured in DMEM medium containing 10% fetal bovine serum (FBS) under 37° C. and 5% CO2 conditions for one day. When the cell density reached about 80%, the medium was replaced with a differentiation medium and the cells were cultured for additional 3 days. […] After culturing for 72 hours, the cells were collected and analyzed for PDK-4, which is a target marker, by Western blot and the results are summarized in FIG. 6.
The analysis was performed in the same manner as in Experimental Example 4-1 except for analyzing GDF-15 as a target marker for a Western blot, and the results are summarized in FIGS. 8 and 9.
The analysis was performed in the same manner as in Experimental Example 3-1 except for analyzing PDK-4 as a target marker for Western blot, and the results are summarized in FIGS. 10 and 11.
(§5) A C2C12 cell line was dispensed into a 6-well plate at 4.0×10^5 cells/well, and then cultured in DMEM medium containing 10% fetal bovine serum (FBS) under 37° C. and 5% CO2 conditions for one day. When the cell density reached about 80%, the medium was replaced with a differentiation medium and the cells were cultured for additional 3 days.

[5] = tested on: Atrogin1; assay: Atrogin1 expression (Western blot) in CCM-treated C2C12 myotubes; format: cell-based, mouse; conditions: 72 hours, compared to other experimental groups (components alone and in combination)
Experimental: (§6) A C2C12 cell line was dispensed into a 6-well plate at 4.0×10^5 cells/well, and then cultured in DMEM medium containing 10% fetal bovine serum (FBS) under 37° C. and 5% CO2 conditions for one day. When the cell density reached about 80%, the medium was replaced with a differentiation medium and the cells were cultured for additional 3 days. After confirming completion of differentiation of the cells, the cells were treated with a mixture, in which the differentiation medium and cancer-cell conditioned medium (CCM) were mixed at a 1:1 ratio, to form a control group, and simultaneously, a test group was set up by treating with the calcium salts of Preparation Examples 1 to 3 according to three predetermined concentrations.
as §5

[6] = tested on: Myogenin; assay: Myogenin expression in mouse muscle tissue, CT26 cachexia model; format: in vivo, Balb/c mice; conditions: CT26 Balb/c cachexia model, 21 days
[7] = tested on: Atrogin1; assay: Atrogin1 expression in mouse muscle tissue, CT26 cachexia model; format: in vivo, Balb/c mice; conditions: CT26 Balb/c cachexia model, 21 days
[8] = tested on: C2C12 myotube cells; assay: Myotube diameter (crystal violet, Image J) of CCM-treated C2C12 myotubes; format: cell-based, mouse; conditions: C2C12 myotubes + CCM 1:1, 72 hours
Experimental: A C2C12 cell line was dispensed into a 6-well plate at 4.0×10^5 cells/well, and then cultured in DMEM medium containing 10% fetal bovine serum (FBS) under 37° C. and 5% CO2 conditions for one day. When the cell density reached about 80%, the medium was replaced with a differentiation medium and the cells were cultured for additional 3 days. […] The myotube diameter was measured using Image J from the above image, and the change in myotube cell diameter is summarized in FIG. 17B. A C2C12 cell line was dispensed into a 6-well plate at 4.0×10^5 cells/well, and then cultured in DMEM medium containing 10% fetal bovine serum (FBS) under 37° C. and 5% CO2 conditions for one day. When the cell density reached about 80%, the medium was replaced with a differentiation medium and the cells were cultured for additional 3 days. […] The myotube diameter was measured using Image J from the above images, and the changes in myotube cell diameter are summarized in FIG. 24B.

[9] = tested on: MyHC; assay: MyHC expression (Western blot) in CCM-treated C2C12 myotubes; format: cell-based, mouse; conditions: 72 hours, compared to other experimental groups (components alone and in combination)
Experimental: as §6, §5

[10] = tested on: Myogenin; assay: Myogenin expression (Western blot) in CCM-treated C2C12 myotubes; format: cell-based, mouse; conditions: 72 hours, compared to other experimental groups (components alone and in combination)
Experimental: as §6, §5

[11] = tested on: MuRF1; assay: MuRF1 expression in mouse muscle tissue, CT26 cachexia model; format: in vivo, Balb/c mice; conditions: CT26 Balb/c cachexia model, 21 days; G4 PO 200 mpk, G5 IV 100 mpk, G6 IV 200 mpk; vs vehicle control G2
[12] = tested on: PDK-4; assay: PDK-4 expression (Western blot) in CCM-treated C2C12 myotubes; format: cell-based, mouse
Experimental: as §4, §5
Subsequently, MuRF1, Atrogin1, MyHC, Myogenin (muscle markers) and Calpain 3, PDK-4, and GDF-15 (other target markers for muscle related disease) were analyzed using Western blot, and the relative expression levels for the markers are shown in FIGS. 26 and 28.

[13] = tested on: IL-1β; assay: IL-1β in mouse blood, CT26 cachexia model; format: in vivo, Balb/c mice; conditions: CT26 Balb/c cachexia model, 21 days; G4 PO 200 mpk, G5 IV 100 mpk, G6 IV 200 mpk; vs vehicle control G2
Experimental: as §2, §3

[14] = Wire hanging test; format: in vivo, Balb/c mice; conditions: CT26 Balb/c cachexia model; G4 to G6; compared to G3 megestrol (positive control)
Experimental: Along with the above, a wire hanging test was performed once a week, and the animal was placed on top of a wire cage, and then turned the cage upside down and hung over the home cage, and the waiting time until the animal fell was recorded and summarized in FIG. 53B.

[15] = tested on: Calpain 3; assay: Calpain 3 expression (Western blot) in CCM-treated C2C12 myotubes; format: cell-based, mouse
Experimental: as §4
The experiment was performed in the same manner as in Experimental Example 3-1, except that Calpain 3 was analyzed as a target marker for Western blot, and the results are summarized in FIG. 7.
as §5

[16] = G4 PO 200 mpk, G5 IV 100 mpk, G6 IV 200 mpk, vs vehicle control G2
[17] = G4 to G6, compared to G3 megestrol 125 mpk oral
[18] = C2C12 myotubes, differentiation medium:CCM 1:1, 72 hours, three predetermined concentrations, vs CCM control

O=C([O-])C(Cl)Cl.O=C1OC(C(O)CO)C([O-])=C1O.[Ca+2] (stereo not shown) [Preparation Example 1, calcium salts of ascorbic acid and dichloroacetic acid]
expression level of PDK-4 in quadriceps [1, 16]: decrease in the expression level | expression level of PDK-4 in quadriceps ([1]; G4 to G6, compared to G3 megestrol 125 mpk): excellent effect of reducing the expression level | lactate in blood serum [2]: decrease in the expression levels | expression level of Calpain 3 in quadriceps ([3]; G4 PO 200 mpk, G5 IV 100 mpk, vs vehicle control G2): increase in the expression level | expression level of Calpain 3 in quadriceps ([3]; compared to G3 megestrol 125 mpk): excellent effect of increasing the expression level | expression of GDF-15 [4]: inhibited | expression of Atrogin1 [5]: excellent effect of inhibiting the increase of expression | expression level of Myogenin in quadriceps [6, 16]: increase in the expression levels | expression of Myogenin in quadriceps [6, 17]: increasing the expression | expression level of Atrogin1 in quadriceps [7, 16]: decrease in the expression levels | expression level of Atrogin1 in quadriceps [7, 17]: excellent effects decreasing the expression levels | diameter of myotube cells ([8]; predetermined concentration, compared to CCM): increased the diameter up to a level similar to that of the normal control group (UCM) | concentration from which the diameter reduction of myotubes was significantly inhibited ([8]; three predetermined concentrations): ≥ 10 µM | expression of MyHC [9]: excellent effect of inhibiting the decrease of expression | expression of Myogenin [10]: excellent effect of inhibiting the decrease of expression | expression level of MuRF1 in quadriceps [11]: decrease in the expression levels | expression of PDK-4 ([12]; C2C12 myotubes + CCM, 72 hours, comparison experiment with components alone and in combination): inhibited | expression level of PDK-4 [12, 18]: expression was inhibited | IL-1β in blood serum [13]: decrease in the expression levels | wire hanging test [14]: level similar | expression level of Calpain 3 ([15]; C2C12 myotubes + CCM, 72 hours, compared to other experimental groups (components alone and in combination)): higher expression level | expression level of Calpain 3 [15, 18]: decrease in expression was inhibited

— patent US20240408057A1, “Composition for preventing or treating cachexia and muscle loss” (METAFINES.CO.LTD., priority 2023, published 2024)
